Reference: US9833466B2, “Treatment of leukemia with histone deacetylase inhibitors” (Acetylon Pharmaceuticals Inc., priority 2014, dated 2017)

Legend:
[1] = system: HDAC1, HDAC2, HDAC3 and HDAC6; experiment: HDAC selectivity of the inhibitor panel; format: biochemical; details: HDAC isoform(s) the inhibitor is selective for
Procedure: Compounds for testing are diluted in DMSO to 50 fold the final concentration and a ten point three fold dilution series is made. The compounds are diluted in assay buffer (50 mM HEPES, pH 7.4, 100 mM Kill, 0.001% Tween-20, 0.05% BASE, 20 μM TEC) to 6 fold their final concentration. The HDAC enzymes (purchased from BPS Biosciences) are diluted to 1.5 fold their final concentration in assay buffer. The dipeptide substrate and trypsin at 0.05 μM final concentration are diluted in assay buffer at 6 fold their final concentration. The final enzyme concentrations to use in these assays are 3.3 ng/ml (HDAC1), 0.2 ng/ml (HDAC2), 0.08 ng/ml (HDAC3) and 2 ng/ml (HDAC6). The final substrate concentrations to use are 16 μM (HDAC1), 10 μM (HDAC2), 17 μM (HDAC3) and 14 μM (HDAC6). Five μ1 of compound and 20 μl of enzyme are added to wells of a black, opaque 384 well plate in duplicate. Enzyme and compound are incubated together at room temperature for 10 min. Five μ1 of substrate is added to each well, the plate is shaken for 60 seconds and placed into a Victor 2 microliter plate reader. The development of fluorescence is monitored for 60 min. and the linear rate of the reaction is calculated. The IC50 is determined using Graph Pad Prism by a four parameter curve fit.
The following HDAC inhibitors were used to evaluate the relationship between HDAC selectivity and the viability of AML cell lines upon exposure to the HDAC inhibitor: […]

[2] = system: HL-60, NB4, MV4-11, Kasumi-1, THP-1, and MOLM-13; experiment: Single agent activity on viability in AML cell lines; format: cell-based; details: for viability IC50 relative to HDAC selective range: 72 hours, six AML cell lines
Procedure: FIGS. 3A-D show the single agent activity on viability in AML cell lines. Briefly, each of the following cell lines: HL-60, THP-1, MV-4-11, Kasumi-1, NB4, and MOLM-13 were exposed to increasing concentrations of either Compound B (FIG. 3A), Compound A (FIG. 3B), Compound E (FIG. 3C), or azacitidine (FIG. 3D) to determine their response to drug treatment. […] The panel of cell lines was also treated with azacitidine to measure their sensitivity.
FIGS. 8A-F show the single agent activity on viability in AML cell lines. […] Viability was calculated as a percentage of control (DMSO treated cells). Growth inhibition curves were generated using GraphPad Prism 6.
FIG. 17. […] (B-D) MV4-11 cells were treated with indicated concentrations of compounds. (B) Surface levels of myeloid differentiation marker CD11b were determined by FACS at 72 h post-treatment. […] (C) Cell cycle was assessed by flow cytometry after incorporation of EdU and staining with Far Red at 72 h post-treatment. The distribution of cells among G0/G1 phase, G2/M phase, S phase and subG1 phase was determined. […] (D) Apoptosis was assessed by flow cytometry via measuring Annexin V binding and cellular permeability to propidium iodide at 96 h post-treatment. The relative fraction of cells that were live, in early apoptosis, in late apoptosis or dead was then determined.

MV4-11 [3] = experiment: Surface CD11b by FACS in MV4-11; format: cell-based; details: single agent, 72 h
Procedure: (§1) The distribution of cells among G0/G1 phase, G2/M phase, S phase and subG1 phase was determined. […] The relative fraction of cells that were live, in early apoptosis, in late apoptosis, or dead was then determined.
(§2) MV4-11 cells were treated with Compound E or with Compound A or with Compound B as single agent or in combination with azacitidine at indicated doses. FIGS. 12A, 12C, and 12E show surface levels of CD11b determined by FACS at 72 h post-treatment. FIGS. 12B, 12D, and 12F show assessment of apoptosis by FACS (as in, e.g., FIG. 9C) at 96 h post-treatment.
(§3) FIG. 17. […] (A) Indicated AML cell lines were exposed to increasing concentrations of Compound J to confirm their sensitivity to HDAC1/2 inhibition. (B-D) MV4-11 cells were treated with indicated concentrations of compounds. (B) Surface levels of myeloid differentiation marker CD11b were determined by FACS at 72 h post-treatment. […] (C) Cell cycle was assessed by flow cytometry after incorporation of EdU and staining with Far Red at 72 h post-treatment. The distribution of cells among G0/G1 phase, G2/M phase, S phase and subG1 phase was determined. […] (D) Apoptosis was assessed by flow cytometry via measuring Annexin V binding and cellular permeability to propidium iodide at 96 h post-treatment. The relative fraction of cells that were live, in early apoptosis, in late apoptosis or dead was then determined.

MV4-11 [4] = experiment: Cell cycle by flow cytometry (EdU, Far Red) in MV4-11; format: cell-based; details: single agent, 72 h
Procedure: as §1, §3

MV4-11 [5] = experiment: Apoptosis by Annexin V / propidium iodide flow cytometry in MV4-11; format: cell-based; details: single agent, 96 h
Procedure: as §1, §2, §3

AML1/ETO fusion protein = AML1/ETO fusion protein Western blot in Kasumi-1 cells; format: cell-based; details: 24 hours
Procedure: One type of AML has a signature chromosome translocation t(8:21) and therefore expression of a unique fusion protein AML1/ETO. […] In this study, Kasumi-1 cells were exposed to different concentrations of the HDAC inhibitor Compound A, or another HDAC1/2/6 selective inhibitor Compound G (data not shown), for 24 hours. The whole cell lysates were separated by SDS-PAGE (SDS-polyacrylamide gel electrophoresis) and transferred to a membrane (Western blot). The AML1/ETO fusion protein was detected on the membrane using an AML1 specific antibody.

Kasumi-1 [6] = experiment: Kasumi-1 cell cycle by propidium iodide staining (sub-G1); format: cell-based; details: 72 hours, increasing concentrations
Procedure: HDAC inhibition causing AML cell death (apoptosis) was measured by staining the AML cells with propidium iodide after the cells were exposed to different concentrations of the HDAC inhibitors. Four distinct cell populations, G1, S, G2, and sub-G1, were separated and quantified based on their propidium iodide staining patterns. The sub-G1 cells are those dying or dead cells, and the percentage of this population was a reflection of the tested compound cytotoxicity.

[7] = system: bone marrow samples derived from AML patients; experiment: Primary AML sample colony formation assay; format: cell-based; details: Homo sapiens, 336 h; 6 bone marrow samples from AML patients; 14 days; single agent; read-out: median IC50, colony formation
Procedure: (A) 6 bone marrow samples derived from AML patients were cultured in methylcellulose-based medium and treated with increasing concentrations of Compound A, Compound J and azacitidine for 14 days when the colonies reach reasonable size. IC50 values for each drug are plotted. […] IC50 values were plotted for each patient sample.

[8] = system: AML blast freshly derived from bone marrow of AML patients; experiment: Ex vivo proliferation of AML blast freshly derived from bone marrow; format: cell-based; details: Homo sapiens; 5 bone marrow samples from AML patients; flow cytometry at 96 h; single agent; read-out: median IC50, live AML cells
Procedure: (A-B), 5 bone marrow samples derived from AML patients were treated with increasing concentrations of azacitidine, Compound A and Compound J and live AML cells were quantified by flow cytometry at 96 h. IC50 values (A) and AUC values (B) were plotted. […] The relative potency of the three drugs are Compound J>azacitidine>Compound A, consistent with the result in FIG. 2. (C) 5 bone marrow samples derived from AML patients were treated with increasing doses of azacitidine with Compound J and live AML cells were quantified by flow cytometry at 96 h. The combination index (Comb IDX) were calculated and median Comb IDX values were plotted.

Kasumi-1 [9] = experiment: Surface CD11b by FACS in Kasumi-1; format: cell-based; details: single agent, 72 hours
Procedure: (§4) Briefly, the AML cell lines HL-60 (FIGS. 4A and 4D), Kasumi-1 (FIGS. 4B and 4E) and NB4 (FIGS. 4C and 4F) were treated with the indicated concentrations of compounds. In FIGS. 4A-C, surface levels of myeloid differentiation marker CD11b were determined by FACS at 72 hours post-treatment. […] In FIGS. 4D-F, apoptosis was assessed by flow cytometry by measuring Annexin V binding and cellular permeability to propidium iodide at 96 hours post-treatment. The relative fraction of cells that were alive, in early apoptosis, in late apoptosis, or dead was then determined.
Briefly, cells were treated with DMSO, Compound B, Compound A, or Compound E as a single agent or in combination with azacitidine at the indicated concentrations. Surface levels of CD11b were determined 72 hours post-treatment (FIGS. 6A, 6C, 6E), and apoptosis was assessed 96 hours post-treatment (FIGS. 6B, 6D, 6F).

GATA2 = GATA2 expression in MV4-11 AML cell line; format: cell-based; details: single agent at 1 uM, 48 h and 72 h
Procedure: FIG. 16. […] (A-B) MV4-11 cells were plated at 2×10^5 cells/ml at indicated doses for 48 h and 72 h. RNA was prepared and analyzed for GATA2 and GAPDH as internal control.

HL-60 = experiment: Surface CD11b by FACS in HL-60; format: cell-based; details: single agent, 72 hours
Procedure: as §4
FIGS. 5A-F show the combination of HDAC inhibitors and azacitidine in the HL-60 cell line. Briefly, cells were treated with DMSO, Compound B, Compound A, or Compound E as a single agent or in combination with azacitidine for 96 hours. Surface levels of CD11b (FIGS. 5A, 5C, 5E) and apoptosis (FIGS. 5B, 5D, 5F) was assessed by flow cytometry, as in FIG. 4.

MV4-11 cells = experiment: MV4-11 tumor growth and survival in Ncr nu/nu mice; format: in vivo; details: single agent azacitidine 5 mg/kg IV q3d; MV4-11 in Ncr nu/nu mice
Procedure: Ncr nu/nu mice implanted with MV4-11 cells were treated with vehicle, azacitidine (5 mg/kg IV q3d), or azacitidine (5 mg/kg IV q3d) plus Compound A (50 mg/kg IP 5/2/5/2/5/2/5) for up to 4 weeks. (A) Tumor volume was measured twice weekly and the mean tumor volume±SD is plotted. (B) Fold tumor volume change on day 19 relative to day 1 is plotted. (C) Survival curve was plotted.

HL-60, Kasumi-1 and NB4 = experiment: Apoptosis by Annexin V / propidium iodide flow cytometry in three AML cell lines; format: cell-based; details: single agent; 96 hours; HL-60, Kasumi-1, NB4
Procedure: as §4
FIGS. 10A-F show the treatment of the following AML cell lines: Kasumi-1 (FIGS. 10A and 10B), HL-60 (FIGS. 10C and 10D) and NB4 (FIGS. 10E and 10F), with indicated doses of compounds. FIGS. 10A, 10C, and 10E show surface levels of myeloid differentiation marker CD11b determined by FACS at 72 h post-treatment. […] FIGS. 10B, 10D, and 10F show the assessment of apoptosis by FACS (see, e.g., FIG. 9C).

NB4 = experiment: Surface CD11b by FACS in NB4; format: cell-based; details: single agent, 72 hours
Procedure: as §4
FIGS. 7A-F show the combination of HDAC inhibitors and azacitidine in the NB4 cell line. Briefly, cells were treated with DMSO, Compound B, Compound A, or Compound E as single agent or in combination with azacitidine at the indicated concentrations. Surface levels of CD11b were determined 72 hours post-treatment (FIGS. 7A, 7C, 7E), and apoptosis was assessed 96 hours post-treatment (FIGS. 7B, 7D, 7F).

Row | viability IC50 relative to HDAC selective range [2] | SMILES | Selectivity [1] | percentage of CD11b positive cells (MV4-11 [3]) | cell cycle arrest (MV4-11 [4]) | apoptosis relative to control cells (MV4-11 [5]) | IC50 [7] | IC50 [8] | other results
1 | beyond its selective range | O=C(NO)c1cnc(NC2(c3cccc(F)c3)CCCCC2)nc1 [Compound C, 2-((1-(3-fluorophenyl)cyclohexyl)amino)-N-hydroxypyrimidine-5-carboxamide] | HDAC6 | no effect on CD11b positive cells |  |  |  |  | 
2 | beyond its selective range | Nc1cc(F)ccc1NC(=O)c1cnc2c(C3CC3)c(N3CCNCC3)ccc2c1 [Compound H] | HDAC3 | increased the percentage of CD11b positive cells |  |  |  |  | 
3 |  | Nc1ccc(-c2cccs2)cc1NC(=O)c1ccc2nc(N3CCNCC3)ccc2c1 [Compound J, N-(2-amino-5-(thiophen-2-yl)phenyl)-2-(piperazin-1-yl)quinoline-6-carboxamide] |  | highest potency increasing percentage of CD11b positive cells | induced cell cycle arrest as well as apoptosis | increase in apoptosis relative to control cells | 2950 nM | 600 nM | cell viability ([2]; AML cell lines): reduces cell viability
4 |  | Nc1ncn([C@@H]2O[C@H](CO)[C@@H](O)[C@H]2O)c(=O)n1 [azacitidine, 4-amino-1-β-D-ribofuranosyl-S-triazin-2(1H)-one, reference compound] |  |  |  |  | 8110 nM | 2100 nM | CD11b positive cells (Kasumi-1 [9]): increased CD11b positive cells; GATA2 level (GATA2): induced GATA2 level; CD11b positive cells (HL-60): increased CD11b positive cells; survival (MV4-11 cells): increased survival; tumor growth (MV4-11 cells): reduced tumor growth; apoptosis relative to control cells (HL-60, Kasumi-1 and NB4): increase in apoptosis relative to control cells; CD11b positive cells (NB4): minimal effects

Row | SMILES | viability IC50 relative to HDAC selective range [2] | Selectivity [1] | percentage of CD11b positive cells (MV4-11 [3]) | cell cycle arrest (MV4-11 [4]) | apoptosis relative to control cells (MV4-11 [5]) | IC50 [7] | IC50 [8] | other results
5 | O=C(NO)c1cnc(NC2(c3ccccc3)CCN(C(=O)Nc3ccccc3)CC2)nc1 [Compound G, N-hydroxy-2-((4-phenyl-1-(phenylcarbamoyl)piperidin-4-yl)amino)pyrimidine-5-carboxamide] | has some inhibitory effects on HDAC1/2 at their IC50 values | HDAC6 (1/2) | increased the percentage of CD11b positive cells | induced cell cycle arrest | increase in apoptosis relative to control cells |  |  | amount of AML1/ETO fusion protein (AML1/ETO fusion protein): decrease the amount of this fusion protein in a concentration dependent manner; sub-G1 cells (dying or dead cells) (Kasumi-1 [6]): Increased amount of sub-G1 cells
